Like-named read-outs stand apart in the source and are kept apart here.
Columns and labels:
[1] = Pharmacokinetic study in rats (intragastrical administration, plasma LC-MS/MS); conditions: male, SD, rat, po, 3 mg/kg
Method: Instruments: XEVO TQ-S LC/MS instrument produced by Waters. All measurement data is collected and processed by Masslynx V4.1 software, and the data is calculated and processed by Microsoft Excel. Using WinNonLin 8.0 software, the statistical moment method was used to calculate the pharmacokinetic parameters. Mainly include kinetic parameters Tmax, T1/2, Cmax, AUClast etc. Column: ACQUITY UPLC BEH C18 (2.1 mm×50 mm, 1.7 μm); column temperature 40° C.; mobile phase A is water (0.1% formic acid), mobile phase B is acetonitrile, flow rate is 0.350 ml/min, gradient elution is adopted, the elution gradient is 0.50 min: 10% B; 1.50 min: 10% B; 2.30 min: 95% B; 2.31 min: 10% B; 3.00 min: stop. Injection volume: 5 μL.
Animals: 3 male SD rats with a weight range of 200-220 g. After purchase, they will be kept in the laboratory of the Experimental Animal Center for 2 days and then used. They will be fasted for 12 hours predose and 4 hours after dosing. Drinking water is free during the test. After the rats were gavage, blood samples were taken according to the established time point.
Solvent: 0.5% Methylcellulose (aqueous solution containing 0.4% Tween 80 and 1% ethanol). Preparation of the solution for intragastrical administration: accurately weigh the compound, add it to the solvent, and use ultrasound at room temperature for 5 minutes to completely dissolve the drug, and prepare a 0.3 mg/ml medicinal solution.
A single administration was also used to study the pharmacokinetics of the drug sample in rats.
After intragastrical administration, blood was taken from the orbit at 0.25, 0.5, 1, 2, 4, 9, 12 and 24 hours, and placed in a plastic centrifuge tube pretreated with sodium heparin. After centrifugation, the supernatant plasma was used for LC-MS/MS analysis.
Accurately weigh the compounds to prepare different concentrations, perform quantitative analysis on mass spectrometry to establish a standard curve, and then test the concentration of the above-mentioned compound in the plasma to obtain the compound concentration at different time points. All measurement data are collected and processed by relevant software, and the statistical moment method is used to calculate the pharmacokinetic parameters (mainly including kinetic parameters Tmax, T1/2, Cmax, AUClast etc).

CDK2/CycA2 = CDK2/CycA2 (Homo sapiens, UniProt P24941); assay: CDK2 kinase activity inhibition assay (caliper mobility shift); assay type: biochemical; conditions: CDK2/CycA2 12 nM, ATP 39 μM; read-out: CDK2 kinase inhibitory activity (IC50)
Method: (§1) 1) CDK2, CDK4 and CDK6 Kinase Activity Inhibition Assay
(§2) In vitro enzymatic activity of the CDK isoforms CDK2/CycA2, CDK4/CycD3 and CDK6/cycD3 were measured using caliper mobility shift assay. Dissolve the compounds in DMSO and dilute them with corresponding kinase buffer (CDK2/CycA2 and CDK6/CycD3 were assayed with buffer conditions of 50 mM HEPES (pH 7.5), 10 mM MgCl2, 0.0015% Brij-35 and 2 mM dithiothreitol; CDK4/CycD3 was assayed with buffer condition of 20 mM HEPES (pH 7.5), 10 mM MgCl2, 0.01% Triton X-100 and 2 mM dithiothreitol). Add 5 μl of compound (10% DMSO) with 5 times the final concentration of the reaction to a 384-well plate. […] Collect conversion data on Caliper EZ Reader II (Caliper Life Sciences). Convert the conversion rate into inhibition rate data (% inhibition rate=(max−conversion rate)/(max−min)*100). […] Draw a curve with the concentration and inhibition rate of the compound as abscissa and ordinate, and use XLFit excel add-in version 4.3.1 software to fit the curve and calculate IC50.

CDK4/CycD3 = CDK4/CycD3 (Homo sapiens, UniProt P11802); assay: CDK4 kinase activity inhibition assay (caliper mobility shift); assay type: biochemical; conditions: CDK4/CycD3 10 nM, ATP 221 μM; read-out: CDK4 kinase inhibitory activity (IC50)
Sequence of CDK4/CycD3 (P11802 whole entry): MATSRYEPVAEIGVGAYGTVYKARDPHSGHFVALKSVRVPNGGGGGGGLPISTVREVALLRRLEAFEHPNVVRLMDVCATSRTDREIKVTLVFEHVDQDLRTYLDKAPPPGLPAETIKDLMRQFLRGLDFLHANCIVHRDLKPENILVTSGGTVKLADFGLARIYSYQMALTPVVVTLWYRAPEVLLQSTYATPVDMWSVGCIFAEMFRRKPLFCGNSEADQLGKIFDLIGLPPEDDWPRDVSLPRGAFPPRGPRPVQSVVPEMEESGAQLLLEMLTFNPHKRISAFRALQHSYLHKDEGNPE
Sequence of CDK4/CycD3 (P30281 whole entry partner): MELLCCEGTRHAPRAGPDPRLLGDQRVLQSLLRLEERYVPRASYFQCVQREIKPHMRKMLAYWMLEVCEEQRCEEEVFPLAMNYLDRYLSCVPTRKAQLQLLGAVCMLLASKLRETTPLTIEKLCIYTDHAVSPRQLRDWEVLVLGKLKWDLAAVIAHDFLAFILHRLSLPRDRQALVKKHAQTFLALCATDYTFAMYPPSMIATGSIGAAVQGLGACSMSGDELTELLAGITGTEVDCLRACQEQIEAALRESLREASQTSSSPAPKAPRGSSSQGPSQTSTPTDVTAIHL
Method: as §1, §2

CDK6/cycD3 = CDK6/cycD3 (Homo sapiens, UniProt Q00534); assay: CDK6 kinase activity inhibition assay (caliper mobility shift); assay type: biochemical; conditions: CDK6/cycD3 15 nM, ATP 800 μM; read-out: CDK6 kinase inhibitory activity (IC50)
Sequence of CDK6/cycD3 (Q00534 whole entry): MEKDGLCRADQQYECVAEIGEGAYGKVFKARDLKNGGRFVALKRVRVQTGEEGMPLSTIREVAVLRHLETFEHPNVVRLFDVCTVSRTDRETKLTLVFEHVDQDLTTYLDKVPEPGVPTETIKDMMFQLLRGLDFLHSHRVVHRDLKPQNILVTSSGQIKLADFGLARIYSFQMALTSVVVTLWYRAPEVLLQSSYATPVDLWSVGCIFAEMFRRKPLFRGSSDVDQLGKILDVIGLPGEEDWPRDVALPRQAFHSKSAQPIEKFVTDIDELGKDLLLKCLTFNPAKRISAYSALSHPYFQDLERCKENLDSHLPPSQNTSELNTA
Sequence of CDK6/cycD3 (P30281 whole entry partner): as the sequence (P30281 whole entry partner) above
Method: as §1, §2

TRKA = TRKA (Homo sapiens, UniProt P04629); assay: TRKA kinase activity inhibition assay (caliper mobility shift); assay type: biochemical
Sequence of TRKA (P04629 33-796): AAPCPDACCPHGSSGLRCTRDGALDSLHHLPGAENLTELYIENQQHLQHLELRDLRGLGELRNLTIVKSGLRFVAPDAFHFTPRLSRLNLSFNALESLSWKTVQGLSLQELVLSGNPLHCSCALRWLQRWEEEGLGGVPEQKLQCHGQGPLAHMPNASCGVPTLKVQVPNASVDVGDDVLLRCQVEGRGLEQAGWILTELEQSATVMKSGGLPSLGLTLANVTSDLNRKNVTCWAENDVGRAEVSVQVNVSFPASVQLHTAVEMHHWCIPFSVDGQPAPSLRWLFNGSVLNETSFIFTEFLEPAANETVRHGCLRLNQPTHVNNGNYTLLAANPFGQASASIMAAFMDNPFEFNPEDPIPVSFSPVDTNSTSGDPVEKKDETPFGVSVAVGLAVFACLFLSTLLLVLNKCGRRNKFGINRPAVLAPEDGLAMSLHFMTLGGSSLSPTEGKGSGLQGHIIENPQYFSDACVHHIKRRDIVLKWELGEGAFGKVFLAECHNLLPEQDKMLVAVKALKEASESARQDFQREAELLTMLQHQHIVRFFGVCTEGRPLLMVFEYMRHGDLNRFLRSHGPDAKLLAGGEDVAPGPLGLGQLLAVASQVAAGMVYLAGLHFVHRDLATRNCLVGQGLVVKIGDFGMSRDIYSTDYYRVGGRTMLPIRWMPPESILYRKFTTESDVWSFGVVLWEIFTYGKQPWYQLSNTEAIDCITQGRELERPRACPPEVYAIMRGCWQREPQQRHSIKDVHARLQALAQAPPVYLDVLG
Method: 2) TRKA Kinase Activity Inhibition Assay
TRKA protein kinase activity was measured by caliper mobility shift assay. Compounds were dissolved in DMSO to make up 10 mM stock solutions. Prepare 1× kinase reaction buffer to serially dilute compounds. 250 nL 100× final concentration of the test compounds were transferred to destination plate 3573 by dispenser Echo 550. Prepare a 2.5× final concentration of kinase solution with 1× kinase buffer. Add 10 μL of 2.5× final kinase solution to compound wells and positive control wells; add 10 μL of 1× kinase buffer to negative control wells. Centrifuge at 1000 rpm for 30 s, shake and mix the reaction plate and incubate at room temperature for 10 min. Prepare a mixture of ATP and kinase substrate solution at 5/3× final concentration with 1× kinase buffer. The reaction was initiated by adding 15 μL of the mixed solution. Centrifuge the 384-well plate at 1000 rpm for 30 s, shake and mix well, and incubate at room temperature for the corresponding time. Add 30 μL of stop solution to stop the kinase reaction, centrifuge at 1000 rpm for 30 s, mix by shaking, and read the conversion rate data with Caliper EZ Reader. Convert conversion to inhibition data (% inhibition=(max DMSO well conversion−sample well conversion)/(max DMSO well conversion−min negative control conversion)*100). Wherein max refers to the conversion rate of the DMSO control, and min refers to the conversion rate of the non-enzymatic control. Draw a curve with the concentration and inhibition rate of the compound as abscissa and ordinate, and use XLFit excel add-in version 4.3.1 software to fit the curve and calculate IC50.

CDK16/CycY = CDK16/CycY (Homo sapiens, UniProt Q00536); assay: CDK16 kinase activity inhibition assay (ADP-Glo); assay type: biochemical; conditions: read-out: CDK16 kinase inhibitory activity (IC50)
Sequence of CDK16/CycY (Q00536 whole entry): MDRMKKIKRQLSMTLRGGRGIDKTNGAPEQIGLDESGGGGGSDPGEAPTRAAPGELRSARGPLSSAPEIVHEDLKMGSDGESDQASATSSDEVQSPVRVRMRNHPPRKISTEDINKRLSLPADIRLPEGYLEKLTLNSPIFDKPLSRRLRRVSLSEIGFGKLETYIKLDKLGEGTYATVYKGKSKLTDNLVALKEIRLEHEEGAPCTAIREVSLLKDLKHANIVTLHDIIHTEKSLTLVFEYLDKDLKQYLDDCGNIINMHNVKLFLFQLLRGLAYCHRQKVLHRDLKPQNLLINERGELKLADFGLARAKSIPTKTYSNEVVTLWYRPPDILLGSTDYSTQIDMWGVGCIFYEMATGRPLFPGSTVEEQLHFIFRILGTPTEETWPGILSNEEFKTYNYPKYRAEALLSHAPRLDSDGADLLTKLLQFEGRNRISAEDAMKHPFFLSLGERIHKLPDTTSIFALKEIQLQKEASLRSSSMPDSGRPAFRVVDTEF
Sequence of CDK16/CycY (Q8ND76 whole entry partner): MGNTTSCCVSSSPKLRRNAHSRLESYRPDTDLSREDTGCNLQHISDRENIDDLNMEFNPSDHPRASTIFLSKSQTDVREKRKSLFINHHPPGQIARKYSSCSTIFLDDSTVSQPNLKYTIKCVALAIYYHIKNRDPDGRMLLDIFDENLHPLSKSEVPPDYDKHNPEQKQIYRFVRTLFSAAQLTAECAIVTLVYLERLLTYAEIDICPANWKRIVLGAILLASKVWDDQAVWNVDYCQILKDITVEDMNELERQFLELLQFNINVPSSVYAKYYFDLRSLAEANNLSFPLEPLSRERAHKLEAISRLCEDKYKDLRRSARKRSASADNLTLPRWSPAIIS
Method: (§3) 3) CDK5, CDK9 and CDK16 Kinase Activity Inhibition Assay
(§4) CDK5/p35NCK, CDK9/CycT1 and CDK16/CycY protein kinase activities were determined using the ADP-Glo Kinase Assay. Dilute the positive compound and the test compound (10 mM stock solution) 25-fold with 100% DMSO, make a 4-fold serial dilution in a 96-well dilution plate, and add 1 μL of the compound to 49 μL of kinase reaction buffer (1 mM Tris, 20 mM MgCl2, 0.10% BSA and 0.5 mM DTT) on a microplate shaker for 20 min. Transfer 2 μL of 2× kinase to the 384-well reaction plate, add 1 μL of the test compound to the 384-well reaction plate, centrifuge at 1000 rpm/min for 1 min, and incubate at 25° C. for 10 min. Transfer 1 μL of the 4× substrate mix to the 384-well reaction plate, centrifuge at 1000 rpm/min for 1 min, and incubate at 25° C. for 60 min. Transfer 4 μL of ADP-Glo to the 384-well reaction plate to centrifuge at 1000 rpm/min for 1 min, and incubate at 25° C. for 40 min. Transfer 8 μL of detection solution to the 384-well reaction plate to centrifuge at 1000 rpm/min for 1 min, and incubate at 25° C. for 40 min. The RLU (Relative luminescence unit) signal was read using a Biotek multifunctional plate reader. Signal intensity is used to characterize the degree of kinase activity. Compound inhibition rate data: % inhibition rate=[1−(compound mean RLU−positive control mean RLU)/(negative control mean RLU−positive control mean RLU)]*100. Taking the log value of the concentration as the X axis and the percentage inhibition rate as the Y axis, the log(inhibitor) vs. response-Variable slope of the analysis software GraphPad Prism 5 was used to fit the dose-response curve to obtain the IC50 value of each compound on the enzyme activity.

CDK5/p35NCK = CDK5/p35NCK (Homo sapiens, UniProt Q00535); assay: CDK5 kinase activity inhibition assay (ADP-Glo); assay type: biochemical; conditions: read-out: CDK5 kinase inhibitory activity (IC50)
Sequence of CDK5/p35NCK (Q00535 whole entry): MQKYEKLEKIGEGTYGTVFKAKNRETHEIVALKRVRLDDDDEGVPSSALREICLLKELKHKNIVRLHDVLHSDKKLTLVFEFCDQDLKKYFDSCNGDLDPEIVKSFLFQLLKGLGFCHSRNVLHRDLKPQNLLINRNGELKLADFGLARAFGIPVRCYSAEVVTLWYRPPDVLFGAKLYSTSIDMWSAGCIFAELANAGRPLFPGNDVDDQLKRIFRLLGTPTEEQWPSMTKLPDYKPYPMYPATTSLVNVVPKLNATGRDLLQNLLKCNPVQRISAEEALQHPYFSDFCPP
Sequence of CDK5/p35NCK (Q15078 whole entry partner): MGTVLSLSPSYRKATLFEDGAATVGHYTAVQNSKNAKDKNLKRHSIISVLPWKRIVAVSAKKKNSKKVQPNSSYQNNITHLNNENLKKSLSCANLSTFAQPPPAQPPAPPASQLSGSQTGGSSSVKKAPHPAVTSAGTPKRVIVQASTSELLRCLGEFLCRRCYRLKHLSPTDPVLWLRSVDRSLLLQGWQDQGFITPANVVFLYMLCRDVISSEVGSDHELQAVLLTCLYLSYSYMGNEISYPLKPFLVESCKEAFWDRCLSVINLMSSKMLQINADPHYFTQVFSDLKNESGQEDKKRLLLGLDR
Method: as §3, §4

CDK9/CycT1 = CDK9/CycT1 (Homo sapiens, UniProt P50750); assay: CDK9 kinase activity inhibition assay (ADP-Glo); assay type: biochemical; conditions: read-out: CDK9 kinase inhibitory activity (IC50)
Sequence of CDK9/CycT1 (P50750 whole entry): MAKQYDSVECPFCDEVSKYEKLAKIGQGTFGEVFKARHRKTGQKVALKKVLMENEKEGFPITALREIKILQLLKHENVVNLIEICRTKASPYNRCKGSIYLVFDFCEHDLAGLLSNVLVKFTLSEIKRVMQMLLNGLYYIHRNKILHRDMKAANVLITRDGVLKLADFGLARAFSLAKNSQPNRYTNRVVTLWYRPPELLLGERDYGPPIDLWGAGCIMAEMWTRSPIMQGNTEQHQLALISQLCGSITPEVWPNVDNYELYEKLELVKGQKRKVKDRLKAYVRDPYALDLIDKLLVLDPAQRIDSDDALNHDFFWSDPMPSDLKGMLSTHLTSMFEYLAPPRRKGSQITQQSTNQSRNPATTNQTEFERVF
Sequence of CDK9/CycT1 (O60563 whole entry partner): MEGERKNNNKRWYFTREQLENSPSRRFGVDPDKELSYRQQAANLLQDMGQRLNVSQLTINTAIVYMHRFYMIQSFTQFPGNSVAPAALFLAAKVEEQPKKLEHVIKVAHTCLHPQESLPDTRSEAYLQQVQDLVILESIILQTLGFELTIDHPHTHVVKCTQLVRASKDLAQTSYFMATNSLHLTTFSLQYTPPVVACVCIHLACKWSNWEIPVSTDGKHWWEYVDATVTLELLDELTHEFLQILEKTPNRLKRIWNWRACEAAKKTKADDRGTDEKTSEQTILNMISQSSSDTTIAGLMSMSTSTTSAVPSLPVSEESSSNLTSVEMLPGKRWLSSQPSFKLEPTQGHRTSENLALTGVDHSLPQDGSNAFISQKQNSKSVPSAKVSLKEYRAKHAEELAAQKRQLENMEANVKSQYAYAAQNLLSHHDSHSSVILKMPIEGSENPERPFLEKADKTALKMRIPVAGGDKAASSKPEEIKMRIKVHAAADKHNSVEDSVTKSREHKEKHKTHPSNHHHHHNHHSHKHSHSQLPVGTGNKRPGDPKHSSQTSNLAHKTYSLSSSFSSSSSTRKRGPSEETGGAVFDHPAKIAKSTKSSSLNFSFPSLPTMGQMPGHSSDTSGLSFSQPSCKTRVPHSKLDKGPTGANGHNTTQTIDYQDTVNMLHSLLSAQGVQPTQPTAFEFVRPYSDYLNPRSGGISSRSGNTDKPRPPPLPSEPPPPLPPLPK
Method: as §3, §4

[2] = read-out: TRKA kinase inhibitory activity (IC50)

Compound	AUC(0-t) [1] [ng·h/mL]	Cmax [1] [ng/mL]	Tmax [1] [h]	half-life [1] [h]	IC50 (CDK2/CycA2) [nM]	IC50 (CDK4/CycD3) [nM]	IC50 (CDK6/cycD3) [nM]	IC50 (TRKA; [2]) [nM]	IC50 (TRKA) [nM]	IC50 (CDK16/CycY) [nM]	IC50 (CDK5/p35NCK) [nM]	IC50 (CDK9/CycT1) [nM]
CC(=O)c1c(C)c2cnc(Nc3ccc4c(c3)OC[C@@H]3CN(C5CCOCC5)CCN43)nc2n(C2CCCC2)c1=O [Compound 1S]	192	37.3	3	6.41	< 100	< 10	< 20	–	–	–	–	–
CC(=O)c1c(C)c2cnc(Nc3ccc4c(c3)OC[C@@H]3CN(C5CCN(C(C)=O)CC5)CCN43)nc2n(C2CCCC2)c1=O [Compound 5S]	2480	266	6	2.18	< 100	< 10	< 10	–	–	–	–	–
CC(=O)c1c(C)c2cnc(Nc3ccc4c(c3)N3CCN(C5CCN(C)CC5)C[C@H]3CO4)nc2n(C2CCCC2)c1=O [Compound 19S]	–	–	–	–	< 500	< 100	–	–	–	–	–	–
CC(=O)c1c(C)c2cnc(Nc3ccc4c(c3)OC[C@@H]3CN(C5CC(F)(F)C5)CCN43)nc2n(C2CCCC2)c1=O [Compound 15S]	–	–	–	–	< 1000	< 50	–	< 100	–	–	–	–
CC(=O)c1c(C)c2cnc(Nc3ccc4c(c3)N3CCN(C5CCNCC5)C[C@H]3CO4)nc2n(C2CCCC2)c1=O [Compound 20S]	–	–	–	–	< 500	–	–	–	–	–	–	–
CC(=O)c1c(C)c2cnc(Nc3ccc4c(c3)OC[C@H]3CN(C5CCN(C)CC5)CCN43)nc2n(C2CCCC2)c1=O [Compound 2R]	–	–	–	–	< 100	< 10	< 10	–	< 10	–	–	–
CC(=O)c1c(C)c2cnc(Nc3ccc4c(c3)N3CCN(C5CCN(C(C)=O)CC5)C[C@H]3CO4)nc2n(C2CCCC2)c1=O [Compound 21S]	–	–	–	–	< 500	–	–	–	–	–	–	–
CC(=O)c1c(C)c2cnc(Nc3ccc4c(c3)OC[C@@H]3CN(C5CN(C)C5)CCN43)nc2n(C2CCCC2)c1=O [Compound 7S]	1940	133	9.33	3.19	< 100	< 10	< 10	< 10	–	< 100	< 100	< 50
CC(=O)c1c(C)c2cnc(Nc3ccc4c(c3)OC[C@H]3CN(C5CCOCC5)CCN43)nc2n(C2CCCC2)c1=O [Compound 1R]	274	43.4	2	2.96	< 100	< 10	< 20	< 10	–	< 100	< 100	< 50
CC(=O)c1c(C)c2cnc(Nc3cc(F)c4c(c3)OC[C@@H]3CN(C5CCN(C)CC5)CCN43)nc2n(C2CCCC2)c1=O [Compound 9S]	697	42.5	12	15.6	< 500	< 10	< 50	–	–	–	–	–
CC(=O)c1c(C)c2cnc(Nc3ccc4c(c3)OC[C@@H]3CN(C5CCN(CC(F)(F)F)CC5)CCN43)nc2n(C2CCCC2)c1=O [Compound 16S]	–	–	–	–	< 500	< 10	–	–	–	–	–	–
CC(=O)c1c(C)c2cnc(Nc3ccc4c(c3)OC[C@H]3CN(C5CCNCC5)CCN43)nc2n(C2CCCC2)c1=O [Compound 3R]	–	–	–	–	< 100	< 10	< 10	–	–	–	–	–
CC(=O)c1c(C)c2cnc(Nc3ccc4c(c3)OC[C@@H]3CN(C5CN(S(C)(=O)=O)C5)CCN43)nc2n(C2CCCC2)c1=O [Compound 14S]	2030	442	1.33	1.84	< 100	< 10	< 20	–	–	–	–	–
CC(=O)c1c(C)c2cnc(Nc3ccc4c(c3)OCC3CNCCN43)nc2n(C2CCCC2)c1=O (centres unmarked) [Ref-B, reference compound]	108	13.9	3.33	6.71	–	–	–	–	–	–	–	–
CC(=O)c1c(C)c2cnc(Nc3ccc4c(c3)OC[C@@H]3CN(C5CCN(C6CC6)CC5)CCN43)nc2n(C2CCCC2)c1=O [Compound 6S]	662	54.9	6.67	4.31	< 100	< 10	< 10	–	–	–	–	–
CC(=O)c1c(C)c2cnc(Nc3ccc4c(c3)OC[C@@H]3CN(C5CCN(CC#N)CC5)CCN43)nc2n(C2CCCC2)c1=O [Compound 17S]	–	–	–	–	< 100	< 10	–	–	–	–	–	–
CC(=O)c1c(C)c2cnc(Nc3ccc4c(c3)OC[C@@H]3CN(C5CN(C(C)=O)C5)CCN43)nc2n(C2CCCC2)c1=O [Compound 11S]	3000	424	2	2.61	< 100	< 10	< 20	< 10	–	–	–	–
CC(=O)c1c(C)c2cnc(Nc3cc(C)c4c(c3)OC[C@@H]3CN(C5CCN(C)CC5)CCN43)nc2n(C2CCCC2)c1=O [Compound 8S]	–	–	–	–	< 500	< 20	< 100	–	–	–	–	–
CC(=O)c1c(C)c2cnc(Nc3ccc4c(c3)OC[C@@H]3CN(C5COC5)CCN43)nc2n(C2CCCC2)c1=O [Compound 13S]	860	169	1.83	1.95	< 100	< 10	< 20	–	–	–	–	–
CC(=O)c1c(C)c2cnc(Nc3ccc4c(c3)OC[C@@H]3CN(C5CCC5)CCN43)nc2n(C2CCCC2)c1=O [Compound 18S]	–	–	–	–	< 500	< 10	–	–	–	–	–	–
CC(=O)c1c(C)c2cnc(Nc3ccc4c(c3)OC[C@@H]3CN(C5CN(C6CC6)C5)CCN43)nc2n(C2CCCC2)c1=O [Compound 12S]	–	–	–	–	< 100	< 10	< 10	–	–	–	–	–
CC(=O)c1c(C)c2cnc(Nc3ccc4c(c3)OC[C@@H]3CN(C5CCNCC5)CCN43)nc2n(C2CCCC2)c1=O [Compound 3S]	1230	85.7	5.33	5.68	< 100	< 10	< 10	< 10	–	< 50	< 100	< 20

From patent publication US12589092B2, “Polycyclic compound acting as kinase inhibitor” (HANGZHOU INNOGATE PHARMA CO., LTD., priority 2020, dated 2026)
